Measured values reported in patent publication US20070293518A1, “PROLONGED IMPROVEMENT OF RENAL FUNCTION COMPRISING INFREQUENT ADMINISTRATION OF AN AA1RA” (priority 2006, published 2007).
Where “and” joins values, the source holds several entries; their conditions need not be identical. Identical values can stand only once. Like-named read-outs stand apart in the source and are kept apart here. Marks after values point to notes of the source that are not given here.

Assays:
[1] = tested on: patients with CHF and renal impairment; assay: Double-blind placebo-controlled study in CHF patients with acute fluid overload and renal impairment: sustained worsening renal function; assay type: in vivo, human; conditions: 2.5, 15, 30 or 60 mg IV days 1 through 3; FIG. 6
Procedure: Worsening renal function was defined as a ≧0.3 mg/dL increase in serum creatinine.

[2] = tested on: subjects with congestive heart failure refractory to standard diuretic therapy; assay: Double-blind placebo-controlled study in CHF patients refractory to standard diuretic therapy: creatinine clearance; assay type: in vivo, human; conditions: 30 mg intravenous infusion with current diuretic therapy; 0-24 hours; FIG. 4
Procedure: A double-blind placebo-controlled study was conducted as follows: 35 subjects with congestive heart failure that were refractory to standard diuretic therapy were identified. […] The patients' diuretic therapy was stopped at least 5 hours before prior to the treatment. Staring at −3 hours, urine was collected for volume and creatinine clearance measurements. […] Blood and urine samples were colleted at 0, 3, 6, 9, 12 and 24 hours following study drug administration.

[3] = Pharmacokinetic study of KW-3902, single intravenous dose, serum concentrations; assay type: in vivo; conditions: human; for clearance: read-out: CL∞ Mean (converted); for half-life: read-out: T1/2 Mean (converted); for Tmax: read-out: Tmax Median; for Vd: read-out: Vss∞ Mean
Procedure: Individuals received a single intravenous dose of 1 mg, 2.5 mg. 5 mg, 10 mg, 20 mg, 30 mg 40 mg, 50 mg or 60 mg KW-3902 as indicated. The serum concentrations of KW-3902 and its M1-trans metabolite were measured using routine analytical methods. Routine mathematical formulae were used to determine pharmacokinetic values.

[4] = tested on: heart failure patients with renal impairment who are treated with diuretics; assay: Double-blind cross-over study in stable CHF: GFR, RPF, urine volume; assay type: in vivo, human; conditions: for GFR % Difference Between KW-3902 and Placebo / GFR Percent Change from Baseline / RPF % Difference Between KW-3902 and Placebo / RPF Percent Change from Baseline: 30 mg KW-3902 IV plus 80 mg IV furosemide
Procedure: A double-blind, multi-center, cross-over designed, controlled study was conducted as follows: Approximately 23 outpatient subjects were randomized. […] Subjects received at least two treatments that were at least three days apart, with a median interval between treatments of 6 days. […] Patients that received KW-3902 on the first visit received placebo on the second visit, and vice versa. Infusions of lothalamate ([…]) and para-aminohippurate were administered according to standard protocols to assess glomerular filtration rate (GFR) and renal plasma flow (RPF), respectively. Iothalamate and para-aminohippurate were administered over 180 minutes before treatment with KW-3902/placebo and 8 hours after treatment with KW-3902/placebo. Urine and plasma were collected for GFR and RPF at baseline and 2, 4, and 8 hours. The mean GFR at baseline was 61 mL/min.

[5] = tested on: subjects hospitalized due to acute CHF requiring intravenous diuretic therapy; assay: Study in subjects hospitalized due to acute CHF requiring intravenous diuretic therapy: serum creatinine, worsening renal function; assay type: in vivo, human
Procedure: More than 300 subjects hospitalized due to acute CHF requiring intravenous diuretic therapy to treat fluid overload, and presenting with creatinine clearance values between 20 to 80 mL/min were identified. The subjects were randomized to receive either placebo, or 10 mg, 20 mg or 30 mg intravenous KW-3902 per day. The subjects' BNP levels, NT-Pro-BNP, serum creatinine, weight, and NYHA Class were measured.
On day 1, KW-3902 (or placebo) was co-administered with intravenous furosemide (LASIX™). The specified dose of KW-3902 (or placebo) was infused over a four hour time period. Subjects received therapy for up to three days, as required. Serum creatinine, weight, dyspnea, and worsening heart failure were assessed daily by the investigator on days 1 through 14. Worsening renal function was defined as a ≧0.3 mg/dL increase in serum creatinine.
A subgroup of subjects received a single dose of KW-3902 and LASIX or a single dose of placebo and LASIX.

[6] = 1 mg, single intravenous dose 1 mg, Group 1, serum
[7] = 2.5 mg, single intravenous dose 2.5 mg, Group 1 (n = 4)
[8] = 2.5 mg, single intravenous dose 2.5 mg, Group 2 (n = 8)
[9] = 5 mg, single intravenous dose 5 mg, Group 2, serum
[10] = 10 mg, single intravenous dose 10 mg, Group 2, serum
[11] = 20 mg, single intravenous dose 20 mg, Group 3, serum
[12] = 30 mg, single intravenous dose 30 mg, Group 3, serum
[13] = 40 mg, single intravenous dose 40 mg, Group 4, serum
[14] = 50 mg, single intravenous dose 50 mg, Group 4, serum
[15] = 60 mg, single intravenous dose 60 mg, Group 4, serum
[16] = serum, individual subjects of subgroup, single dose of KW-3902 and LASIX

AUC(0-inf) [3, 6]: 0.0315 µg·h/mL
Cmax [3, 6]: 0.0129 µg/mL
MRT inf [3, 6]: 2.6 h
clearance [3, 6]: 610 mL/min
half-life [3, 6]: 2.8 h
Tmax [3, 6]: 0.5 h
Vd [3, 6]: 58.9 L
AUC(0-inf) [3, 7]: 0.0976 µg·h/mL
Cmax [3, 7]: 0.0356 µg/mL
MRT inf [3, 7]: 8.1 h
clearance [3, 7]: 443 mL/min
half-life [3, 7]: 11.4 h
Tmax [3, 7]: 1.2 h
Vd [3, 7]: 185 L
AUC(0-inf) [3, 8]: 0.084 µg·h/mL
Cmax [3, 8]: 0.0359 µg/mL
MRT inf [3, 8]: 4.7 h
clearance [3, 8]: 518 mL/min
half-life [3, 8]: 7.3 h
Tmax [3, 8]: 0.5 h
Vd [3, 8]: 117 L
AUC(0-inf) [3, 9]: 0.221 µg·h/mL
Cmax [3, 9]: 0.0909 µg/mL
MRT inf [3, 9]: 5.8 h
clearance [3, 9]: 435 mL/min
half-life [3, 9]: 9.6 h
Tmax [3, 9]: 0.5 h
Vd [3, 9]: 106 L
AUC(0-inf) [3, 10]: 0.496 µg·h/mL
Cmax [3, 10]: 0.186 µg/mL
MRT inf [3, 10]: 8.7 h
clearance [3, 10]: 350 mL/min
half-life [3, 10]: 14.4 h
Tmax [3, 10]: 0.5 h
Vd [3, 10]: 161 L
AUC(0-inf) [3, 11]: 0.898 µg·h/mL
Cmax [3, 11]: 0.294 µg/mL
MRT inf [3, 11]: 11.5 h
clearance [3, 11]: 390 mL/min
half-life [3, 11]: 18 h
Tmax [3, 11]: 1.2 h
Vd [3, 11]: 244 L
AUC(0-inf) [3, 12]: 1.19 µg·h/mL
Cmax [3, 12]: 0.457 µg/mL
MRT inf [3, 12]: 7.7 h
clearance [3, 12]: 455 mL/min
half-life [3, 12]: 14.7 h
Tmax [3, 12]: 0.6 h
Vd [3, 12]: 189 L
AUC(0-inf) [3, 13]: 1.87 µg·h/mL
Cmax [3, 13]: 0.452 µg/mL
MRT inf [3, 13]: 9.4 h
clearance [3, 13]: 372 mL/min
half-life [3, 13]: 16.1 h
Tmax [3, 13]: 2.2 h
Vd [3, 13]: 178 L
AUC(0-inf) [3, 14]: 2.12 µg·h/mL
Cmax [3, 14]: 0.579 µg/mL
MRT inf [3, 14]: 7.9 h
clearance [3, 14]: 427 mL/min
half-life [3, 14]: 15.5 h
Tmax [3, 14]: 1.6 h
Vd [3, 14]: 166 L
AUC(0-inf) [3, 15]: 2.72 µg·h/mL
Cmax [3, 15]: 0.682 µg/mL
MRT inf [3, 15]: 9.2 h
clearance [3, 15]: 378 mL/min
half-life [3, 15]: 16.4 h
Tmax [3, 15]: 2.2 h
Vd [3, 15]: 176 L
Structure (SMILES): CCCn1c(=O)c2[nH]c(C34CC5CC(CC3C5)C4)nc2n(CCC)c1=O [KW-3902, 8-(3-noradamantyl)-1,3-dipropylxanthine]
Sustained worsening renal function (≧0.3 mg/dL increase in serum creatinine), in words [1]: improves renal function
Change in creatinine clearance from baseline (in words) [2]: improvement in renal function over time
GFR % Difference Between KW-3902 and Placebo ([4]; 0-2 hours): 27.3* %
GFR Percent Change from Baseline ([4]; 0-2 hours): 22.1* Percent
RPF % Difference Between KW-3902 and Placebo ([4]; 0-2 hours): 27.7* %
RPF Percent Change from Baseline ([4]; 0-2 hours): 33.3* Percent
GFR % Difference Between KW-3902 and Placebo ([4]; 0-8 hours): 23.4* %
GFR Percent Change from Baseline ([4]; 0-8 hours): 32.1* Percent
RPF % Difference Between KW-3902 and Placebo ([4]; 0-8 hours): 24.9* %
RPF Percent Change from Baseline ([4]; 0-8 hours): 47.7** Percent
GFR % Difference Between KW-3902 and Placebo ([4]; 2-4 hours): 7.6%
GFR Percent Change from Baseline ([4]; 2-4 hours): 8.5%
RPF % Difference Between KW-3902 and Placebo ([4]; 2-4 hours): 12.7%
RPF Percent Change from Baseline ([4]; 2-4 hours): 41.7%
GFR % Difference Between KW-3902 and Placebo ([4]; 4-8 hours): 30.1* %
GFR Percent Change from Baseline ([4]; 4-8 hours): 41.3* Percent
RPF % Difference Between KW-3902 and Placebo ([4]; 4-8 hours): 30.0* %
RPF Percent Change from Baseline ([4]; 4-8 hours): 55.8* Percent
Effect on GFR (in words) ([4]; FIG. 2): statistically significant increase
Effect on renal plasma flow (in words) ([4]; FIG. 3): statistically significant increase
Urine volume over 8 hours ([4]; KW-3902 plus furosemide): 2995.1 ± 1138.17 mL
Persistence of the increase in GFR noted at 8 hours ([4]; subgroup that received KW-3902 on the first visit, follow-up baseline (median 6 days), FIG. 5): persisted at the time of follow-up baseline
Change in mean serum creatinine levels (in words) ([5]; 30 mg per day IV up to three days, Day 14, FIG. 8): overall decrease in serum creatinine levels
Increase in the percentage of individuals with worsening renal failure, compared to placebo ([5]; days 2, 3, 4, 5, 6, and 7, FIG. 7): lower
Δ Creatinine ([5]; serum, Day 14 vs Day 1, individual subjects of subgroup, single dose of KW-3902 and LASIX): −0.5 mg/dL and 0 mg/dL (2×) and 0.2 mg/dL and −0.2 mg/dL and −0.1 mg/dL
Day 1 Creatinine [5, 16]: 1.7 mg/dL and 1.4 mg/dL and 1.15 mg/dL and 2.9 mg/dL and 1.6 mg/dL and 3.2 mg/dL and 1.0 mg/dL
Day 14 Creatinine [5, 16]: 1.2 mg/dL and 1.4 mg/dL and 1.3 mg/dL and 2.7 mg/dL (2×) and 1.0 mg/dL
Mean change in serum creatinine levels (in words) ([5]; single dose subgroup (30 mg KW-3902), Day 14): mean decrease in serum creatinine levels
